Data from US20240043386A1, “Modulators of the Cystic Fibrosis Transmembrane Conductance Regulator Protein and Methods of Use” (AbbVie Global Enterprises Ltd., priority 2021, published 2024).
Where two headings read alike, the source gives them in different places.

How the values were obtained:
F508del/F508del CFTR = biological target: T1, F508del/F508del CFTR (Homo sapiens, UniProt P13569, DEL508-508); experiment: Trans-Epithelial Current Clamp (TECC) assay using primary human bronchial epithelial cells; format: cell-based; details: for Emax (% Dual): maximum percent activity relative to positive control (co-corrector 0.15 μM + potentiator 0.45 μM = 100%), primary hBE cells F508del/F508del; for EC50: primary hBE cells homozygous F508del/F508del, test C2 corrector with co-corrector and potentiator, 18-24 hours at 37° C., equivalent CFTR current (IEQ)/AUC
T1 construct: cells isolated from CF patients with the homozygous mutation; endogenous in cells; host or cells: primary human bronchial epithelial (hBE) cells from CF patients homozygous for F508del
T1 sequence (P13569 with tags, fused parts or gaps DEL508-508): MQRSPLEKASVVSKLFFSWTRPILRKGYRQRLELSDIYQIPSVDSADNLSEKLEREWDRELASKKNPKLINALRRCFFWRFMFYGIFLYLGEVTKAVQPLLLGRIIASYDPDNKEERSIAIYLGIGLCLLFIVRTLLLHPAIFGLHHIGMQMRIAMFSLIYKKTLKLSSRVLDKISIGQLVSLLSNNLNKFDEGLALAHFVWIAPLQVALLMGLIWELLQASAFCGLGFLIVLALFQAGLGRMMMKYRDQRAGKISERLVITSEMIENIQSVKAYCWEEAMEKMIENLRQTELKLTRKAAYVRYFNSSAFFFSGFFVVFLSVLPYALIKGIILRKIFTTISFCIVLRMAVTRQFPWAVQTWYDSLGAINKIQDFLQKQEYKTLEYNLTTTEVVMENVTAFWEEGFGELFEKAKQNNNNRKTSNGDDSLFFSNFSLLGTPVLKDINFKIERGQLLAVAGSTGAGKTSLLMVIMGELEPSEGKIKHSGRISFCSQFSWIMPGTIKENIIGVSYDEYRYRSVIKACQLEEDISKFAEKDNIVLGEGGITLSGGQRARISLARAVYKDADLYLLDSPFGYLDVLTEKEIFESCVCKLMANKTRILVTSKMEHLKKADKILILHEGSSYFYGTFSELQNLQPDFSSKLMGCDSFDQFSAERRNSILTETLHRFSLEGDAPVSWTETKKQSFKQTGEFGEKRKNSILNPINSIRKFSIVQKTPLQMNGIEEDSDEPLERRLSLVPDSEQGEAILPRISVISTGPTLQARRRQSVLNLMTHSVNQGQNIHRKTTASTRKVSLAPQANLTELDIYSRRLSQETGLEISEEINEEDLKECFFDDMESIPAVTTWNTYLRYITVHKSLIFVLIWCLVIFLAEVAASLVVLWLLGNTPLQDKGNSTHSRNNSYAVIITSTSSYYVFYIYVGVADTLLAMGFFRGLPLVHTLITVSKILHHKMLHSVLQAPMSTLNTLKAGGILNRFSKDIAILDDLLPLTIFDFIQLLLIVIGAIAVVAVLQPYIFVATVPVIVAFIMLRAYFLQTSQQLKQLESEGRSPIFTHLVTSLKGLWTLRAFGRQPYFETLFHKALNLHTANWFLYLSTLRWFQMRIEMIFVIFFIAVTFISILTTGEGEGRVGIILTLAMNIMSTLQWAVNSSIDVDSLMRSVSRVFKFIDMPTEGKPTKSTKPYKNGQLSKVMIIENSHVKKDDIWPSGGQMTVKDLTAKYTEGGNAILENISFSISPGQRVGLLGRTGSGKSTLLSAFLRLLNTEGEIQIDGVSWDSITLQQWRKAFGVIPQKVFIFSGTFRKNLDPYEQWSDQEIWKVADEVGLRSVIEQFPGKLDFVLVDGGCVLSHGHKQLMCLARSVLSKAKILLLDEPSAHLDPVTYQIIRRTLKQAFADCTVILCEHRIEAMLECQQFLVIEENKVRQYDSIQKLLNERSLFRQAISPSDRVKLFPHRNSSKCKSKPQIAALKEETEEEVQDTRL
Description: A cell-based assay was developed using the primary human bronchial epithelial cells (hBE cells) with F508del/F508del CFTR and other mutations.
Primary human bronchial epithelial (hBE) cells from CFTR patients with homozygous F508del/F508del mutation were expanded from 1×10^6 to 250×10^6 cells (Neuberger, T et al., 2011, Methods Mol Biol 741:39-54). For this purpose, cells isolated from CF patients with the homozygous mutation, procured from the CF center tissue procurement and cell culture core at the Marsico Lung Institute at UNC (Randell), the Cystic Fibrosis translational research center at McGill University (University), and Rosalind Franklin University Medical School (RFUMS) were seeded onto 24 well Corning (Cat #3378) filter plates that were coated with 3T3 conditioned media and grown at an air-liquid interface for 35 days using an Ultroser® G supplemented differentiation media. All the primary human bronchial epithelial cells were collected in accordance with institutional review board approval protocols. Apical surface mucus was removed 72 hours before the experiment by incubating the apical surface of the cells for 30 minutes with 3 mM dithiothreitol (DTT) prepared in Dulbecco's phosphate buffered saline (DPBS) with Ca^2+ and Mg^2+. This was followed with aspiration of the mucus from the apical surface along with DPBS. The apical surface was re-washed with phosphate buffered saline (PBS) incubated for 30 minutes followed with aspiration. These hBE cells were then incubated with the desired concentrations of the test C2 corrector compounds along with co-corrector, 4-[(2R,4R)-4-({[1-(2,2-difluoro-1,3-benzodioxol-5-yl)cyclopropyl]carbonyl}amino)-7-(difluoromethoxy)-3,4-dihydro-2H-chromen-2-yl]benzoic acid and potentiator, (5-{3-amino-5-[4-(trifluoromethoxy)benzene-1-sulfonyl]pyridin-2-yl}-1,3,4-oxadiazol-2-yl)methanol, for 18-24 hours at 37° C., 5% CO2. The desired concentrations of the correctors and potentiator compounds were prepared from the 10 mM stocks in differentiation media and were always applied on the basolateral side of the epithelial cells. We also used an assay format where a fixed concentration of potentiator was added chronically along with the corrector compounds. This chronic treatment with the potentiator helped eliminate any interaction that might happen with CFTR modulators (correctors and potentiators) and thereby determined the true efficacy of the modulator combinations reflective of clinical relevance.
The assay uses a Transepithelial Current Clamp (TECC) (Vu, C B et al., 2017; J Med Chem 60:458-473) instrument that can measure the functionality of the mutated channel by measuring the equivalent CFTR current (IEQ) generated by the polarized primary epithelial cells. We used a TECC-24 with a 24-channel electrode manifold allowing for the simultaneous measurement of the transepithelial voltage, VT, and transepithelial resistance, RT, under current clamp conditions, from 24 filters using a 24 well Costar filter plate. The design of the filters in the 24 well filter plates was exactly the same as the design of an individual Transwell filter used in the classical Ussing Chamber with a surface area of 0.33 cm^2. Each measured VT values were corrected for the electrode offset potential measured using buffer alone in a separate plate, and each measured RT values were then corrected for the combined solution series and empty filter resistances. The corrected VT and RT values were then used to calculate the equivalent current, IEQ using Ohm's law (IEQ=VT/RT). The area under the curve (AUC) for the time period between the forskolin peak IEQ response and at the time of bumetanide addition was also calculated using a one-third trapezoid method, in addition to calculating the IEQ. The assay was run in a 24-well format and all 24-wells were measured at the same time point giving a higher throughput for this assay. […]

F508delCFTR = biological target: T2, F508delCFTR (Homo sapiens, UniProt P13569, DEL508-508); experiment: Cell Surface Expression-Horse Radish Peroxidase (CSE-HRP) assay in CFBE41o-F508delCFTR-HRP cells; format: cell-based; details: for EC50: CFBE41o-F508delCFTR-HRP cells, 18-24 hours at 33° C., luminescence; for Maximum % activity (without co-corrector) / Maximum % activity (with co-corrector): normalized to on-plate positive control corrector (2 μM)
T2 construct: expressed in transfected cells; host or cells: CFBE41o- human lung-derived epithelial cell line, doxycycline-inducible expression
T2 sequence (P13569 with tags, fused parts or gaps DEL508-508): as above
Experimental: A cellular assay for measuring the F508delCFTR cell surface expression after correction with test compounds either without or with a co-corrector (2 μM of 3-[(2R,4R)-4-({[1-(2,2-difluoro-1,3-benzodioxol-5-yl)cyclopropyl]carbonyl}amino)-7-methoxy-3,4-dihydro-2H-chromen-2-yl]benzoic acid), was developed in human lung derived epithelial cell line (CFBE4lo-) (Veit G et al, (2012) Mol Biol Cell. 23(21): 4188-4202). The development was achieved by expressing the F508delCFTR mutation along with a horseradish peroxidase (HRP) in the fourth exofacial loop, and then measuring the HRP activity using luminescence readout from these cells, CFBE4lo-F508delCFTR-HRP, that were incubated overnight with the test corrector compounds, either without or with the co-corrector. For this primary assay, the CFBE4lo-F508delCFTR-HRP cells were plated in 384-well plates (Greiner Bio-one; Cat 781080) at 4,000 cells/well along with 0.5 μg/mL doxycycline to induce the F508delCFTR-RP expression and further incubated at 37° C., 5% CO2 for 68-72 hours. The test compounds were then added either without or with a co-corrector at the required concentrations and further incubated for 18-24 hours at 33° C. The highest concentration tested was 20 μM or 30 μM (GI-1 to GIII-36) with an 8-point concentration response curve using a 3-fold dilution in both the test compound without or with the co-corrector. Three replicate plates were run to determine one EC50. All plates contained negative controls (dimethyl sulfoxide, DMSO) and positive control (2 μM or 3 μM (GI-1 to GIII-36) of 3-[(2R,4R)-4-({[1-(2,2-difluoro-1,3-benzodioxol-5-yl)cyclopropyl]carbonyl}amino)-7-methoxy-3,4-dihydro-2H-chromen-2-yl]benzoic acid) as well as on-plate concentration response of the positive control. Post incubation, the plates were washed 5× times with Dulbecco's phosphate buffered saline (DPBS), followed by the addition of the HRP substrate, luminol (50 μL), and measuring the HRP activity using luminescence readout on EnVision® Multilabel Plate Reader (Perkin Elmer; product number 2104-0010). The raw counts from the experiment were analyzed using Accelrys® Assay Explorer v3.3.
Z′ greater than 0.5 was used as passing quality control criteria for the plates. The Z′ is defined as:
1−[3*SDPositive Control+3*SDNegative Control/Absolute (MeanPositive Control−MeanNegative Control)]
The % activity measured at each of the 8 test concentrations of the test compound added either without or with a co-corrector (2 μM or 3 μM (GI-1 to GIII-36) of 3-[(2R,4R)-4-({[1-(2,2-difluoro-1,3-benzodioxol-5-yl)cyclopropyl]carbonyl}amino)-7-methoxy-3,4-dihydro-2H-chromen-2-yl]benzoic acid) was normalized to the on-plate positive control using the following formulae:
% activity (Test compound without co-corrector)=[(test compound without co-corrector response−DMSO response)/(positive control response−DMSO response)]*100
% activity (Test compound with co-corrector)=[(test compound with co-corrector response−DMSO response)/(positive control response−DMSO response)]*100
The maximum % activity achieved for the test compound either without or with a co-corrector at any tested concentration is presented in Table 3 along with the respective EC50's calculated using the following general sigmoidal curve with variable Hill slope equation (described as Model 42 in the Accelrys® Assay Explorer v3.3 software):
General sigmoidal curve with concentration, response, top, bottom, EC50 and Hill slope. This model describes a sigmoidal curve with an adjustable baseline, a. The equation can be used to fit curves where response is either increasing or decreasing with respect to the independent variable, “x”.

[1] = with co-corrector (2 μM), read-out: EC50 (with co-corrector)
[2] = without co-corrector, read-out: EC50 (without co-corrector)

Emax (% Dual) (F508del/F508del CFTR) | EC50 (F508del/F508del CFTR) [nM] | EC50 (F508delCFTR; [1]) [nM] | EC50 (F508delCFTR; [2]) [nM] | Maximum % activity (without co-corrector) (F508delCFTR; without co-corrector) [%] | Maximum % activity (with co-corrector) (F508delCFTR; with co-corrector (2 μM)) [%] | SMILES
127 | 182 | 1150 | 1850 | 690 | – | COc1ccc(C)cc1[C@@]1(C(=O)NS(=O)(=O)c2cccc3nc(C)ccc23)C[C@H]1c1cncc(F)c1 (racemic) [Example 42, rac-(1r,2s)-2-(5-fluoropyridin-3-yl)-1-(2-methoxy-5-methylphenyl)-N-(2-methylquinoline-5-sulfonyl)cyclopropane-1-carboxamide]
281 | 74.5 | 1110 | 2440 | 700 | – | COc1ccc(C)cc1[C@@]1(C(=O)NS(=O)(=O)c2cccc3nc(C)ccc23)C[C@H]1c1cnc(C(C)C)cn1 (racemic) [Example 61, rac-(1r,2r)-1-(2-methoxy-5-methylphenyl)-N-(2-methylquinoline-5-sulfonyl)-2-[5-(propan-2-yl)pyrazin-2-yl]cyclopropane-1-carboxamide]
329 | 261 | 474 | 990 | 483 | – | CCOc1cnc([C@@H]2C[C@]2(C(=O)NS(=O)(=O)c2cccc3nc(C)ccc23)c2cc(C)ccc2OC)cn1 (racemic) [Example 62, rac-(1r,2r)-2-(5-ethoxypyrazin-2-yl)-1-(2-methoxy-5-methylphenyl)-N-(2-methylquinoline-5-sulfonyl)cyclopropane-1-carboxamide]
282 | 30.3 | 364 | 825 | 825 | – | COc1ccc(C)cc1[C@@]1(C(=O)NS(=O)(=O)c2cccc3nc(C)ccc23)C[C@H]1c1ccc(C(C)C)nc1OC (racemic) [Example 78, rac-(1r,2s)-1-(2-methoxy-5-methylphenyl)-2-[2-methoxy-6-(propan-2-yl)pyridin-3-yl]-N-(2-methylquinoline-5-sulfonyl)cyclopropane-1-carboxamide]
205 | 21.6 | 171 | 465 | 388 | 860 | COc1ccc([C@@H]2C[C@]2(C(=O)NS(=O)(=O)c2cccc3nc(C)ccc23)c2cc(C)ccc2OC)c(OC)n1 (racemic) [Example 79, rac-(1r,2s)-2-(2,6-dimethoxypyridin-3-yl)-1-(2-methoxy-5-methylphenyl)-N-(2-methylquinoline-5-sulfonyl)cyclopropane-1-carboxamide]
322 | 142 | 1260 | 2240 | 447 | 935 | COc1ccc(C)cc1[C@]1(C(=O)NS(=O)(=O)c2cccc3nc(C)ccc23)C[C@@H]1c1cnc(C)cn1 (racemic) [Example 89, rac-(1r,2r)-1-(2-methoxy-5-methylphenyl)-2-(5-methylpyrazin-2-yl)-N-(2-methylquinoline-5-sulfonyl)cyclopropane-1-carboxamide]
209 | 12.6 | 855 | 1810 | 749 | – | COc1nccc([C@@H]2C[C@]2(C(=O)NS(=O)(=O)c2cccc3nc(C)ccc23)c2cc(C)ccc2OC)n1 (racemic) [Example 95, rac-(1r,2r)-1-(2-methoxy-5-methylphenyl)-2-(2-methoxypyrimidin-4-yl)-N-(2-methylquinoline-5-sulfonyl)cyclopropane-1-carboxamide]
250 | 12.9 | 497 | 626 | 523 | – | COc1ccc(C)cc1[C@@]1(C(=O)NS(=O)(=O)c2cccc3nc(C)ccc23)C[C@H]1c1ccccc1 (single isomer, unassigned) [Example 2]
